Experimental findings from ChEMBL document CHEMBL3832069, “DailyMed|setid=b463cd5f-299a-45f8-a1b3-c9e7fe271955 | INDOMETHACIN- indomethacin capsule|PD-Rx Pharmaceuticals, Inc” are described below.

SMILES strings stand for the structures.

What is called bioavailability is the share of a dose that reaches the circulation, judged against a reference dose that is usually intravenous. Read a high bioavailability as much systemic uptake. The half-life is the time in which the quantity being followed falls by half. A low value points to fast loss. Broadly, the Cmax is the peak of the concentration-time curve. One may read the Tmax as the time from dosing to the highest level.

Assay type in all cases: ADME, organism-based
A short description of series [1]: Pharmacokinetic parameters for Indomethacin evaluated after oral administration of Indomethacin capsules. As to conditions: human, in vivo, dosed compound id 57, dosed compound name INDOMETHACIN, tissue Plasma.
The nature of series [2]: (§1) Pharmacokinetic parameters for Indomethacin evaluated after single oral administration of 25 or 50 mg Indomethacin capsules. The arrangement: dose 25 mg, dose 50 mg, route oral. As to conditions: human, in vivo, dosed compound id 57, dosed compound name INDOMETHACIN, regimen Single dose, tissue Plasma.
Series [3] deals with Homo sapiens. The series is described as §1. Details: dose 25 mg, dose 50 mg, route oral. To be noted: in vivo, po, dosed compound id 57, dosed compound name INDOMETHACIN, regimen Single dose, tissue Plasma.

`COc1ccc2c(c1)c(CC(=O)O)c(C)n2C(=O)c1ccc(Cl)cc1` [INDOMETHACIN] displayed a bioavailability in series [1] of 100%. In addition, in series [1], the half-life was 4.5 h. Besides, the fraction unbound in series [1] (read-out: Protein binding) stood at 0.01. In addition, the maximum concentration (Cmax) was found to be 1000 ng/mL in series [2] (po) and 2000 ng/mL in series [3]. For the same compound, the Tmax in series [2] (dose 25 mg, route oral) amounted to 2 h.
